Patent US20230310428A1, “EGFR INHIBITOR AND PREPARATION METHOD AND USE THEREOF” (HONGYUN BIOTECH CO., LTD., priority 2020, published 2023)
Read-outs that look alike come from different tables or passages of the source.

How the values were obtained:
Test in all cases: Growth inhibitory activity of compounds on BaF3 cell lines stably transfected with kinase (MTS, 48 h)
Assay type in all cases: cell-based
[1] = target: T1, various mutants of kinase EGFR (BaF3 cell lines stably transfected with kinase) (Homo sapiens, UniProt P00533)
T1 construct: other: BaF3 cells stably transfected with EGFR Δ19Del; MTS, 48 h; other: BaF3 cell line stably transfected with EGFR Δ19Del
Method in brief: (§1)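 BaF3 cells stably transfected with EGFR mutants were exposed for 48 h at 37°C to 8 compound concentrations (top 10 µM, 1/3 dilutions, 0.1% DMSO). Growth was read by MTS at 490 nm after 1-4 h, in duplicate; IC50 was derived from inhibition rates versus DMSO control.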

[2] = target: T2, various mutants of kinase EGFR (BaF3 cell lines stably transfected with kinase) (Homo sapiens, UniProt P00533, T790M/C797S, form not given)
T2 construct: other: BaF3 cells stably transfected with EGFR Δ19Del/T790M/C797S; MTS, 48; other: BaF3 cell line stably transfected with EGFR Δ19Del/T790M/C7
T2 sequence (P00533 with tags, fused parts or gaps DEL746-750/T790M/C797S, form open): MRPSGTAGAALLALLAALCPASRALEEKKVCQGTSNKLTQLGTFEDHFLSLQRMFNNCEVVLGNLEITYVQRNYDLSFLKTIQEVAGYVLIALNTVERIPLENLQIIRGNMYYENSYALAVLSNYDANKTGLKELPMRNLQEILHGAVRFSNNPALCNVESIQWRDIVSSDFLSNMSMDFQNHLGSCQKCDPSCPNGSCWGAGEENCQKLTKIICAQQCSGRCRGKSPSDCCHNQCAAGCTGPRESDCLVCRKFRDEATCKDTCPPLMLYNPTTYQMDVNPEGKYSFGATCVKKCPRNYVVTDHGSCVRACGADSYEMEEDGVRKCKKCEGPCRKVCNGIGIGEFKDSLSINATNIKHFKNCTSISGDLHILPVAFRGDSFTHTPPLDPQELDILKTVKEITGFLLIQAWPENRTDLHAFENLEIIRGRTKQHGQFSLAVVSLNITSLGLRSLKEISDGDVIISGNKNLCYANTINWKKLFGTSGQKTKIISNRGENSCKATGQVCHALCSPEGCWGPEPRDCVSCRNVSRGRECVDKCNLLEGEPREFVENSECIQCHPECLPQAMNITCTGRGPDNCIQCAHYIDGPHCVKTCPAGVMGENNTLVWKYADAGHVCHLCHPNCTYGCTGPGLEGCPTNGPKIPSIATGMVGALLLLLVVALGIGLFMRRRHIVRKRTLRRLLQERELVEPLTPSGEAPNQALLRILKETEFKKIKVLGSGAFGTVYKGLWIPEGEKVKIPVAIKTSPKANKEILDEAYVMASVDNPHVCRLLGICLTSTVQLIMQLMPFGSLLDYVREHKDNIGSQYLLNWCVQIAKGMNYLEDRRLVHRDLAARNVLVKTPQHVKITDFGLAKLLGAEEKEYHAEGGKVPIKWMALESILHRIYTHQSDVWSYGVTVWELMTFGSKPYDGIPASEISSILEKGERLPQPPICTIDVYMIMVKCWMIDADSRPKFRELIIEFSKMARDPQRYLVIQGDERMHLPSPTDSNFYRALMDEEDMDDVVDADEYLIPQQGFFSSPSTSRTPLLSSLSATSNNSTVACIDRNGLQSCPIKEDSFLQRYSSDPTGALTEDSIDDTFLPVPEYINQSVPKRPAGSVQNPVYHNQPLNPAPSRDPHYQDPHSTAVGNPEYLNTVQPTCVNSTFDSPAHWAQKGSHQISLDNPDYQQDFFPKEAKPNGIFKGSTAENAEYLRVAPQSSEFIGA
Method in brief: as §1

[3] = target: T3, various mutants of kinase EGFR (BaF3 cell lines stably transfected with kinase) (Homo sapiens, UniProt P00533, L858R)
T3 construct: expressed in transfected cells; host or cells: BaF3
Method in brief: as §1

[4] = target: T4, various mutants of kinase EGFR (BaF3 cell lines stably transfected with kinase) (Homo sapiens, UniProt P00533, C797S/L858R/T790M)
T4 construct: expressed in transfected cells; host or cells: BaF3
T4 sequence (P00533 25-1210 T790M/C797S/L858R): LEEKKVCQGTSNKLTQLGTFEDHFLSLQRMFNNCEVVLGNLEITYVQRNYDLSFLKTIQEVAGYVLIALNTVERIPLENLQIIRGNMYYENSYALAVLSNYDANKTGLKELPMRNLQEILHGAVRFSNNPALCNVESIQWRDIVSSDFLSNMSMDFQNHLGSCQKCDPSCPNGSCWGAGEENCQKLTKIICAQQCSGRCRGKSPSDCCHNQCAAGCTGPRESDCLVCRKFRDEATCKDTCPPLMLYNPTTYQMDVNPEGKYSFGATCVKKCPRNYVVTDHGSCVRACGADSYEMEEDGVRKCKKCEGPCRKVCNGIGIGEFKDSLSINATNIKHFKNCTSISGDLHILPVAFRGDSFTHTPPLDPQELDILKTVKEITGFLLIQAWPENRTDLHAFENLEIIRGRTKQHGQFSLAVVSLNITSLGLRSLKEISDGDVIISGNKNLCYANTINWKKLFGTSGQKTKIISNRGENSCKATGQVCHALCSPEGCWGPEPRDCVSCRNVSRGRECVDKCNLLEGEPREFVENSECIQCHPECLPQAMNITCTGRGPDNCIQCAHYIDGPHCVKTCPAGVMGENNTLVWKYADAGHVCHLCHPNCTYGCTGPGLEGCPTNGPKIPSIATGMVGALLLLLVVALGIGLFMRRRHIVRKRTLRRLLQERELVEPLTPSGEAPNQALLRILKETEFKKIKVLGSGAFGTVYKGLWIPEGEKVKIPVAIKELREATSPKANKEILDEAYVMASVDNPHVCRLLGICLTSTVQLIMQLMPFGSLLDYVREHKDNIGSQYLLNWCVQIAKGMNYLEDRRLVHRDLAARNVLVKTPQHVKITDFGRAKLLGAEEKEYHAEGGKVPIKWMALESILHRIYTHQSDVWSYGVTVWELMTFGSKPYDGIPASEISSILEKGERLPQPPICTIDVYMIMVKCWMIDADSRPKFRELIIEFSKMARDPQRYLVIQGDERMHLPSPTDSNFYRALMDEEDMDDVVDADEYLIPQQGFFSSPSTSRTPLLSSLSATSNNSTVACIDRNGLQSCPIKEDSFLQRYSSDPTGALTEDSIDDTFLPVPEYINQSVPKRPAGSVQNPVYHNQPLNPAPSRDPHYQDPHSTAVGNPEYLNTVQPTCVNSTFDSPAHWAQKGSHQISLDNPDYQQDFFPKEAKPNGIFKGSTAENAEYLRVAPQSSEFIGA
Method in brief: as §1

[5] = target: T5, various mutants of kinase EGFR (BaF3 cell lines stably transfected with kinase) (Homo sapiens, UniProt P00533, T790M, form not given)
T5 construct: other: BaF3 cells stably transfected with EGFR Δ19Del/T790M; MTS, 48 h; other: BaF3 cell line stably transfected with EGFR Δ19Del/T790M; MTS, 48
T5 sequence (P00533 with tags, fused parts or gaps DEL746-750/T790M, form open): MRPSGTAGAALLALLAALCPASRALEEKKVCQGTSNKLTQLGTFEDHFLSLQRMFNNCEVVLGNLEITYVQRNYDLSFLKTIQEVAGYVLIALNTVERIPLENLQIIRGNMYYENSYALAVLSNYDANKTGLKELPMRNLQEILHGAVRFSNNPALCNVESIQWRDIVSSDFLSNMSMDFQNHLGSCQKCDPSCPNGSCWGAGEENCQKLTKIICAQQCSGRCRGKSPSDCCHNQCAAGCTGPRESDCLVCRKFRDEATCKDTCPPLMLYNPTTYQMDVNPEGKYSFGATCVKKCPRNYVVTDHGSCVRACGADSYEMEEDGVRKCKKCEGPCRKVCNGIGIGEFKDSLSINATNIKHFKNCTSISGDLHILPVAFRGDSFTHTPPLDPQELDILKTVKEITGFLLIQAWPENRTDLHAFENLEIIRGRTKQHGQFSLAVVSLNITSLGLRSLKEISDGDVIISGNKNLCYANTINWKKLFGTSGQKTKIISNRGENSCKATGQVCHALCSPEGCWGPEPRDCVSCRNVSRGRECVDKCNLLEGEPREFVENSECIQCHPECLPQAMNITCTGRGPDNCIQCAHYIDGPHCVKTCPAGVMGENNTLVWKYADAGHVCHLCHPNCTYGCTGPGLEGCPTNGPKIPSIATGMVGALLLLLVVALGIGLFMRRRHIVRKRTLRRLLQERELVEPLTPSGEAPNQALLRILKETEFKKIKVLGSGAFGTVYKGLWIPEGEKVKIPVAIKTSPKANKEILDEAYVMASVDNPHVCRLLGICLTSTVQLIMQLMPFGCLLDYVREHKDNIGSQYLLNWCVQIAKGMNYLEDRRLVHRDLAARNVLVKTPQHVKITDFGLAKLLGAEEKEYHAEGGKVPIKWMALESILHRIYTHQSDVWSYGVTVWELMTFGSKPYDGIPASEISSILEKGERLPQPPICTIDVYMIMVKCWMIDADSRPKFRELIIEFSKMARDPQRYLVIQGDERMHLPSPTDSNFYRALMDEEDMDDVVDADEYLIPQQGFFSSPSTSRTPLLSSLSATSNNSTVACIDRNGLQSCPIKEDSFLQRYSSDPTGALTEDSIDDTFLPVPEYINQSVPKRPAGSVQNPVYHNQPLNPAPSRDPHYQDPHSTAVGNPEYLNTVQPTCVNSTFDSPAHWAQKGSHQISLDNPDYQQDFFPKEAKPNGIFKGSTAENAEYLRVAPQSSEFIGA
Method in brief: as §1

[6] = target: T6, various mutants of kinase EGFR (BaF3 cell lines stably transfected with kinase) (Homo sapiens, UniProt P00533, L858R/T790M)
T6 construct: expressed in transfected cells; host or cells: BaF3
T6 sequence (P00533 25-1210 T790M/L858R): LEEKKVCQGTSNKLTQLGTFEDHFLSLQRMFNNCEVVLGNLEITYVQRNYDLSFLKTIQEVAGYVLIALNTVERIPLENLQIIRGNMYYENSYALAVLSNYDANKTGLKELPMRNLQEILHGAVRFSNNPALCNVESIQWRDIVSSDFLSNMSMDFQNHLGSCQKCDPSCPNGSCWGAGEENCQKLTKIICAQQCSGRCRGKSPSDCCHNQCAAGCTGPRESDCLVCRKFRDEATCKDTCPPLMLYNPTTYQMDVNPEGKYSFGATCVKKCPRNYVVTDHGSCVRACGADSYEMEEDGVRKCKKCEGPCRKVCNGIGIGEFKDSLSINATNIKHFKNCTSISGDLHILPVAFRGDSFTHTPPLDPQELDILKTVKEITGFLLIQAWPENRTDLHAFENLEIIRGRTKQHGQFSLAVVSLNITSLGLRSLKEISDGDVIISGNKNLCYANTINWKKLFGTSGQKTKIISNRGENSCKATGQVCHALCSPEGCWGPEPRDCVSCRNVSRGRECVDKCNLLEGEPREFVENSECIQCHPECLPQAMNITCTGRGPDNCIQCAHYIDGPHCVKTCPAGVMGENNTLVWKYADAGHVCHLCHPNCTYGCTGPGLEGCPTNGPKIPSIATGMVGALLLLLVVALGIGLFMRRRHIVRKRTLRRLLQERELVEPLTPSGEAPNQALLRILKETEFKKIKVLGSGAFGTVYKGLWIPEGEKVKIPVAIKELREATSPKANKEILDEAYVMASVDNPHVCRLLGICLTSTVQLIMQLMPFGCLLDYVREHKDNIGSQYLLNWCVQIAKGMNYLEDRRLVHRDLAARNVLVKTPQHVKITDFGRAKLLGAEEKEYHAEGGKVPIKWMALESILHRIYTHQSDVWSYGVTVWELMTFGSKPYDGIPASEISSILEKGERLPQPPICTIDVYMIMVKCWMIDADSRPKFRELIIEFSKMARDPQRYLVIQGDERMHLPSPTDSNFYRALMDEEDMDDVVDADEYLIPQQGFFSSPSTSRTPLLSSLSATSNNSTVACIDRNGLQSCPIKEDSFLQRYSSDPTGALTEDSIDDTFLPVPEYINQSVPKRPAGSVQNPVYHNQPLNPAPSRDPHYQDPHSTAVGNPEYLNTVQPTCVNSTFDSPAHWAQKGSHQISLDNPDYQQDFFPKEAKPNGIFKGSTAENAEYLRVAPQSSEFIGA
Method in brief: as §1

[7] = BaF3 cells stably transfected with EGFR Δ19Del, read-out: IC50, growth inhibition, Δ19Del
[8] = BaF3 cells stably transfected with EGFR Δ19Del/T790M/C797S, read-out: IC50, growth inhibition, Δ19Del/T790M/C797S
[9] = BaF3 cells stably transfected with EGFR L858R, read-out: IC50, growth inhibition, L858R
[10] = BaF3 cells stably transfected with EGFR L858R/T790M/C797S, read-out: IC50, growth inhibition, L858R/T790M/C797S
[11] = BaF3 cells stably transfected with EGFR Δ19Del/T790M, read-out: IC50, growth inhibition, Δ19Del/T790M
[12] = BaF3 cells stably transfected with EGFR L858R/T790M, read-out: IC50, growth inhibition, L858R/T790M

| IC50 ([1]; BaF3 cell line stably transfected with EGFR Δ19Del, read-out: Δ19Del growth inhibitory activity IC50) | IC50 ([2]; BaF3 cell line stably transfected with EGFR Δ19Del/T790M/C797S, read-out: Δ19Del/T790M/ C797S growth inhibitory activity IC50) | IC50 ([3]; BaF3 cell line stably transfected with EGFR L858R, read-out: L858R growth inhibitory activity IC50) | IC50 ([4]; BaF3 cell line stably transfected with EGFR L858R/T790M/C797S, read-out: L858R/T790M/ C797S growth inhibitory activity IC50) | IC50 ([5]; BaF3 cell line stably transfected with EGFR Δ19Del/T790M, read-out: Δ19Del/ T790M growth inhibitory activity IC50) | IC50 ([6]; BaF3 cell line stably transfected with EGFR L858R/T790M, read-out: L858R/ T790M growth inhibitory activity IC50) | IC50 [1, 7] | IC50 [2, 8] | IC50 [3, 9] | IC50 [4, 10] | IC50 [5, 11] | IC50 [6, 12] | SMILES |
| --- | --- | --- | --- | --- | --- | --- | --- | --- | --- | --- | --- | --- |
| 500 to 2500 nM | 50 to 500 nM | 500 to 2500 nM | 500 to 2500 nM | 500 to 2500 nM | 50 to 500 nM |  |  |  |  |  |  | COc1cc(N2CCC(N(C)C)C2)c(C)cc1Nc1nc(Nc2ccc3nccnc3c2N(C)S(C)(=O)=O)c2sccc2n1 (stereo not drawn) [II-1-14] |
|  |  |  |  |  |  | 50 to 500 nM | ≤ 50 nM | 50 to 500 nM | 50 to 500 nM | 50 to 500 nM | 50 to 500 nM | COc1cc(N2CCC(N3CCN(C)CC3)CC2)c(CC2CC2)cc1Nc1ncc(Cl)c(Nc2ccc3nccnc3c2N(C)S(=O)(=O)C2CC2)n1 [Compound I-238] |
|  |  |  |  |  |  | 500 to 2500 nM | 50 to 500 nM | 500 to 2500 nM | 50 to 500 nM | 500 to 2500 nM | 500 to 2500 nM | COc1nc(N2CCC(N3CCN(C)CC3)CC2)ccc1Nc1ncc(Br)c(Nc2ccc3nccnc3c2N(C)S(=O)(=O)C2CC2)n1 [Compound I-216] |
